Patent publication US10897901B2, “Herbicidal composition” (FMC Corporation, priority 2007, dated 2021)

Columns and labels:
Type in all cases: in vivo
[1] = test system: Yellow Nutsedge (Cyperus esculentus); experiment: Example 1 post-emergent turf plot test, nutsedge
Protocol: (§1) The experimental design used randomized plots with post-emergent treatment and three replications per test trial. The size of each experimental plot was 4 feet by 6 feet. The application of each test composition was performed with pressurized back-pack sprayers, calibrated to spray 200 gallons per acre. Test compositions containing sulfentrazone (DISMISS™ Turf Herbicide), quniclorac, (FACET® 75 DF herbicide) or a mixture of sulfentrazone and quinclorac in a 1:3 ratio, prepared as described above, were diluted with water to provide the appropriate test rate concentrations.
The control of weeds was evaluated in each experimental plot from 7 to 41 days after treatment (DAT) of each test rate. The results, shown as an average of the replications, were compared with results observed in untreated control plots in the same trials.

[2] = test system: Smooth Crabgrass (Digitaria ischaemum); experiment: Example 2 post-emergent turf plot test, tillered crabgrass
Protocol: as §1, with “quinclorac,” for “quniclorac,”, “one to three” for “1:3”
(§2) The control of weeds was evaluated in each experimental plot from 1 to 27 days after treatment (DAT) of each test rate. The results, shown as an average of the replications, were compared with results observed in untreated control plots in the same trials.

[3] = test system: Field Violet (Viola arvensis); experiment: Example 2 post-emergent turf plot test, violet
Protocol: as §1, with “quinclorac,” for “quniclorac,”, “one to three” for “1:3”
as §2

[4] = test system: White Clover (Trifolium repens); experiment: Example 2 post-emergent turf plot test, clover
Protocol: as §1, with “quinclorac,” for “quniclorac,”, “one to three” for “1:3”
as §2

[5] = test system: Hemp Sesbania (Sesbania exaltata); experiment: Example 4 post-emergence greenhouse pot test, hemp sesbania
Protocol: (§3) Test compositions containing sulfentrazone (75 DF formulation), quniclorac, (DRIVE® 75 DF Herbicide) or mixtures of sulfentrazone and quinclorac at ratios of 1:1 to 1:5, were diluted with water to provide the appropriate test rate concentrations. A nonionic surfactant (0.25%) was added to each test solution. The test weeds include crabgrass (Digitaria sp), Chickweed (Stellaria media), Hemp Sesbania (Sesbania exaltata), Kochia (Kochia scoparia), Ivyleaf Morningglory (Ipomoea hederacea), Redroot Pigweed (Amaranthus retroflexus) and yellow nutsedge (Cyperus esculentusi).
(§4) For post-emergence testing, three disposable 3 inch square pots for each rate of application of each herbicide were filled with a soil, comprised of peat moss, vermiculite, bark ash, pine bark, limestone and a wetting agent, to which 8 to 10 seeds were planted. The pots were placed in a greenhouse and watered daily, thus allowing the seeds to germinate and the foliage to develop for 22 days, 3 months for Kochia.
(§5) Pots designated for treatment were placed on a conveyor belt and the conveyor belt fed under a spray nozzle mounted about ten inches above the foliage. The spray of herbicidal solution was commenced and once stabilized; the pots were passed under the spray at a speed to receive a coverage equivalent of 30 gallons per acre. The application rates are those shown in Table 4 below for the individual herbicidal solutions and the mixture of sulfentrazone and quinclorac. The post-emergence pots were immediately placed in the green-house and not watered until 24 hours after treatment with the test solution. Thereafter they were regularly watered at ground level. The control of weeds was evaluated in each experimental test from 2 to 20 days after treatment (DAT). The results, shown as an average of the replications, were compared with results observed in untreated control pots in the same tests.
(§6) Percent control was determined by a method similar to the 0 to 100 rating system disclosed in “Research Methods in Weed Science,” 2nd ed., B. Truelove, Ed.; Southern Weed Science Society; Auburn University, Auburn, Ala., 1977.

[6] = test system: yellow nutsedge (Cyperus esculentusi); experiment: Example 4 post-emergence greenhouse pot test, nutsedge
Protocol: as §3, §4, §5, §6

## Cc1nn(-c2cc(NS(C)(=O)=O)c(Cl)cc2Cl)c(=O)n1C(F)F [A, N-[2,4-dichloro-5-[4-(difluoromethyl)-4,5-dihydro-3-methyl-5-oxo-1H-1,2,4-triazol-1-yl]phenyl]methanesulfonamide]
[1]; 0.57 lb ai/acre, 7 DAT
  Percent Control: 50%
[1]; 0.57 lb ai/acre, 14 DAT
  Percent Control: 75%
[1]; 0.57 lb ai/acre, 21 DAT
  Percent Control: 89%
[1]; 0.57 lb ai/acre, 28 DAT
  Percent Control: 91%
[2]; 0.57 lb ai/acre, 7 DAT
  Percent Control: 34%
[2]; 0.57 lb ai/acre, 14 DAT
  Percent Control: 36%
[2]; 0.57 lb ai/acre, 21 DAT
  Percent Control: 52%
[3]; 0.57 lb ai/acre, 7 DAT
  Percent Control: 66%
[3]; 0.57 lb ai/acre, 14 DAT
  Percent Control: 78%
[3]; 0.57 lb ai/acre, 21 DAT
  Percent Control: 69%
[4]; 0.57 lb ai/acre, 7 DAT
  Percent Control: 45%
[4]; 0.57 lb ai/acre, 14 DAT
  Percent Control: 74%
[4]; 0.57 lb ai/acre, 21 DAT
  Percent Control: 68%
[5]; 0.25 lb ai/acre, 2 DAT
  Percent Control: 70%
[5]; 0.25 lb ai/acre, 7 DAT
  Percent Control: 85%
[5]; 0.25 lb ai/acre, 14 DAT
  Percent Control: 90%
[5]; 0.25 lb ai/acre, 20 DAT
  Percent Control: 90%
[6]; 0.25 lb ai/acre, 2 DAT
  Percent Control: 25%
[6]; 0.25 lb ai/acre, 7 DAT
  Percent Control: 60%
[6]; 0.25 lb ai/acre, 14 DAT
  Percent Control: 85%
[6]; 0.25 lb ai/acre, 20 DAT
  Percent Control: 95%

## O=C(O)c1c(Cl)ccc2cc(Cl)cnc12 [B, 3,7-dichloro-8-quinolinecarboxylic acid]
[1]; 0.75 lb ai/acre, 7 DAT
  Percent Control: 100%
[1]; 0.75 lb ai/acre, 14 DAT
  Percent Control: 40%
[1]; 0.75 lb ai/acre, 21 DAT
  Percent Control: 10%
[1]; 0.75 lb ai/acre, 28 DAT
  Percent Control: 13%
[2]; 0.75 lb ai/acre, 7 DAT
  Percent Control: 54%
[2]; 0.75 lb ai/acre, 14 DAT
  Percent Control: 66%
[2]; 0.75 lb ai/acre, 21 DAT
  Percent Control: 67%
[3]; 0.75 lb ai/acre, 7 DAT
  Percent Control: 46%
[3]; 0.75 lb ai/acre, 14 DAT
  Percent Control: 48%
[3]; 0.75 lb ai/acre, 21 DAT
  Percent Control: 51%
[4]; 0.75 lb ai/acre, 7 DAT
  Percent Control: 60%
[4]; 0.75 lb ai/acre, 14 DAT
  Percent Control: 87%
[4]; 0.75 lb ai/acre, 21 DAT
  Percent Control: 82%
[5]; 0.25 lb ai/acre, 2 DAT
  Percent Control: 0%
[5]; 0.25 lb ai/acre, 7 DAT
  Percent Control: 0%
[5]; 0.25 lb ai/acre, 14 DAT
  Percent Control: 5%
[5]; 0.25 lb ai/acre, 20 DAT
  Percent Control: 20%
[5]; 0.5 lb ai/acre, 2 DAT
  Percent Control: 0%
[5]; 0.5 lb ai/acre, 7 DAT
  Percent Control: 10%
[5]; 0.5 lb ai/acre, 14 DAT
  Percent Control: 20%
[5]; 0.5 lb ai/acre, 20 DAT
  Percent Control: 60%
[5]; 0.75 lb ai/acre, 2 DAT
  Percent Control: 0%
[5]; 0.75 lb ai/acre, 7 DAT
  Percent Control: 0%
[5]; 0.75 lb ai/acre, 14 DAT
  Percent Control: 10%
[5]; 0.75 lb ai/acre, 20 DAT
  Percent Control: 60%
[5]; 1.0 lb ai/acre, 2 DAT
  Percent Control: 10%
[5]; 1.0 lb ai/acre, 7 DAT
  Percent Control: 10%
[5]; 1.0 lb ai/acre, 14 DAT
  Percent Control: 20%
[5]; 1.0 lb ai/acre, 20 DAT
  Percent Control: 60%
[5]; 1.25 lb ai/acre, 2 DAT
  Percent Control: 0%
[5]; 1.25 lb ai/acre, 7 DAT
  Percent Control: 0%
[5]; 1.25 lb ai/acre, 14 DAT
  Percent Control: 10%
[5]; 1.25 lb ai/acre, 20 DAT
  Percent Control: 50%
[6]; 0.25 lb ai/acre, 2 DAT
  Percent Control: 0%
[6]; 0.25 lb ai/acre, 7 DAT
  Percent Control: 0%
[6]; 0.25 lb ai/acre, 14 DAT
  Percent Control: 0%
[6]; 0.25 lb ai/acre, 20 DAT
  Percent Control: 0%
[6]; 0.5 lb ai/acre, 2 DAT
  Percent Control: 0%
[6]; 0.5 lb ai/acre, 7 DAT
  Percent Control: 0%
[6]; 0.5 lb ai/acre, 14 DAT
  Percent Control: 0%
[6]; 0.5 lb ai/acre, 20 DAT
  Percent Control: 0%
[6]; 0.75 lb ai/acre, 2 DAT
  Percent Control: 0%
[6]; 0.75 lb ai/acre, 7 DAT
  Percent Control: 0%
[6]; 0.75 lb ai/acre, 14 DAT
  Percent Control: 0%
[6]; 0.75 lb ai/acre, 20 DAT
  Percent Control: 0%
[6]; 1.0 lb ai/acre, 2 DAT
  Percent Control: 0%
[6]; 1.0 lb ai/acre, 7 DAT
  Percent Control: 0%
[6]; 1.0 lb ai/acre, 14 DAT
  Percent Control: 0%
[6]; 1.0 lb ai/acre, 20 DAT
  Percent Control: 0%
[6]; 1.25 lb ai/acre, 2 DAT
  Percent Control: 0%
[6]; 1.25 lb ai/acre, 7 DAT
  Percent Control: 0%
[6]; 1.25 lb ai/acre, 14 DAT
  Percent Control: 0%
[6]; 1.25 lb ai/acre, 20 DAT
  Percent Control: 0%
